In patent publication US10882843B2, “5-aminopyrazole carboxamide derivative as BTK inhibitor and preparation method and pharmaceutical composition thereof” (SUZHOU SINOVENT PHARMACEUTICALS CO., LTD., priority 2016, dated 2021):

These molecules were tested on diffuse large B-cell lymphoma cell line TMD-8 (assay: Pharmacodynamic assay, TMD-8 xenograft in NOD.SCID mice). Settings: p.o. daily for 21 days.
Assay type: in vivo
Method: Severe immunodeficiency NOD.SCID mice were purchased from Beijing Vital River Laboratory Animal Technology Co., Ltd., and were housed in SPF grade animal room. After TMD-8 cells were cultured to the sufficient amount, the cells were collected by centrifugation and washed twice with PBS. Finally, the cells were resuspended in serum-free RPMI 1640 medium plus Matrigel (1:1 v/v). 0.2 ml of cell suspension was injected subcutaneously on the right flank of each mouse using 1 ml syringe and 25 G syringe needle. The tumor size was measured with a caliper after about one week post injection. The tumor volume was calculated according to the following formula: tumor volume=(length×width^2)/2. When the tumor volume reached about 100-200 mm^3, the mice were grouped and p.o. administered daily for 21 days.
In the case of `CC#CC(=O)N1C[C@H](n2nc(-c3ccc(Oc4ccc(F)cc4F)cc3)c(C(N)=O)c2N)CCC12CC2` [WS-422, (R)-5-amino-1-(4-(2-butynoyl)-4-azaspiro[2.5]oct-6-yl)-3-(4-(2,4-difluorophenoxy)phenyl)-1H-pyrazole-4-carboxamide], the “growth of TMD-8 tumor in vivo” value is reported as “significantly inhibited the growth”.

Each molecule was assayed against Recombinant Btk (Homo sapiens, UniProt Q06187) (assay: Kinase activity (BTK) inhibition assay, TR-FRET). Settings: read-out: BTK kinase inhibitory activity grade (A/B/C).
Sequence of Recombinant Btk (Q06187 whole entry): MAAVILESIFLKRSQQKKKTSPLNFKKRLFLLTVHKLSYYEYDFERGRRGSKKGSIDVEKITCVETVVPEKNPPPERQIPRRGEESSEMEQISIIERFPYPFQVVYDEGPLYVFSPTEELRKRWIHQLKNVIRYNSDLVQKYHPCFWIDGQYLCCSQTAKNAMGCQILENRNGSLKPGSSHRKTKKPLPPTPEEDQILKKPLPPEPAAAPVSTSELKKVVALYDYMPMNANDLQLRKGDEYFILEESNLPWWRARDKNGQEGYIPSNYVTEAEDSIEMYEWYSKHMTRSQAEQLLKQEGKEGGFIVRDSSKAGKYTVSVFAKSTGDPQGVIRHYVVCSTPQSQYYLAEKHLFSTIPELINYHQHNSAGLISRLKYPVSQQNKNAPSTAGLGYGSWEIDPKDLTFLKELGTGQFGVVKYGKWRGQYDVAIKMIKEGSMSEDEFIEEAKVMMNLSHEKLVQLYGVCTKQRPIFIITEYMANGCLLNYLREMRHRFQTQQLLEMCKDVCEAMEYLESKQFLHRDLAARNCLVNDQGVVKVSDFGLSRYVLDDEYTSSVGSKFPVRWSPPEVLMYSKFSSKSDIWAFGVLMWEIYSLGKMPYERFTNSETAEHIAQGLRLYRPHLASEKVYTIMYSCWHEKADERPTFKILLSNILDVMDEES
Assay type: biochemical
Method: Kinase Activity (BTK) Inhibition Assay
The inhibitory effects of the compounds disclosed herein on BTK kinase activity were tested in an assay based on a time resolved fluorescence resonance energy transfer (TR-FRET) method. Recombinant Btk was pre-incubated with the compound disclosed herein in an assay buffer containing 50 mM. Tris pH 7.4, 10 mM MgCl2, 2 mM MnCl2, 0.1 mM EDTA, 1 mM DTT, 20 nM SEB, 0.1% BSA, 0.005% tween-20 at room temperature for 1 hour. The reaction was initiated by the addition of ATP (at the ATP Km concentration) and the peptide substrate (Biotin-[…]-NH2). After incubation for 1 hour at room temperature, an equal volume of stop solution containing 50 mM HEPES pH 7.0, 800 mM KF, 20 mM EDTA, 0.1% BSA, p-Tyr66 antibody linked with Eu cryptate and streptavidin-labeled XL665 was added to stop the reaction. The plate was incubated for an additional hour at room temperature and then the TR-FRET signal was read on a BMG PHERAstar FS instrument (ex337 nm, em 620 nm/665 nm). Based on the ratio of the signal of fluorescence at […] to 665 nm, the enzyme activity was calculated with an increased compound concentration. IC50 of each compound was obtained by fitting the data to the four-parameter equation of Graphpad Prism software.
Molecule `C[C@H]1CC[C@@H](n2nc(-c3ccc(Oc4ccc(Cl)cn4)cc3)c(C(N)=O)c2N)CN1C#N` [WS-401, 5-amino-3-(4-((5-chloropyridin-2-yl)oxy)phenyl)-1-((3R,6S)-1-cyano-6-methylpiperidin-3-yl)-1H-pyrazole-4-carboxamide] has an IC50 of less than 100 nM.
`C[C@@H]1CC[C@H](n2nc(-c3ccc(Oc4ccc(Cl)cn4)cc3)c(C(N)=O)c2N)CN1C#N` [WS-402, 5-amino-3-(4-((5-chloropyridin-2-yl)oxy)phenyl)-1-((3S,6R)-1-cyano-6-methylpiperidin-3-yl)-1H-pyrazole-4-carboxamide] showed an IC50 of 100 to 1000 nM.
Molecule `C[C@@H]1CC[C@@H](n2nc(-c3ccc(Oc4ccc(Cl)cn4)cc3)c(C(N)=O)c2N)CN1C#N` [WS-403, 5-amino-3-(4-((5-chloropyridin-2-yl)oxy)phenyl)-1-((3R,6R)-1-cyano-6-methylpiperidin-3-yl)-1H-pyrazole-4-carboxamide] has an IC50 of 100 to 1000 nM.
With `C[C@H]1CC[C@H](n2nc(-c3ccc(Oc4ccc(Cl)cn4)cc3)c(C(N)=O)c2N)CN1C#N` [WS-404, 5-amino-3-(4-((5-chloropyridin-2-yl)oxy)phenyl)-1-((3S,6S)-1-cyano-6-methylpiperidin-3-yl)-1H-pyrazole-4-carboxamide] the IC50 was 100 to 1000 nM.
`N#CN1CC(n2nc(-c3ccc(Oc4ccc(Cl)cn4)cc3)c(C(N)=O)c2N)CCC12CC2` (stereo not drawn) [WS-405, 5-amino-3-(4-((5-chloropyridin-2-yl)oxy)phenyl)-1-(4-cyano-4-azaspiro[2.5]oct-6-yl)-1H-pyrazole-4-carboxamide] was tested, and the IC50 was less than 100 nM.
For `NC(=O)c1c(-c2ccc(Oc3ccc(Cl)cn3)cc2)nn(C2CCC3(CC3)N(C(=O)/C=C/CO)C2)c1N` (stereo not drawn) [WS-406, (E)-5-amino-3-(4-((5-chloropyridin-2-yl)oxy)phenyl)-1-(4-(4-hydroxybut-2-enoyl)-4-azaspiro[2.5]oct-6-yl)-1H-pyrazole-4-carboxamide], the IC50 was less than 100 nM.
`C=CC(=O)N1CC(n2nc(-c3ccc(Oc4ccc(Cl)cn4)cc3)c(C(N)=O)c2N)CCC12CC2` (stereo not drawn) [WS-407, 1-(4-acryloyl-4-azaspiro[2.5]oct-6-yl)-5-amino-3-(4-((5-chloropyridin-2-yl)oxy)phenyl)-1H-pyrazole-4-carboxamide] showed an IC50 of less than 100 nM.
For `N#CN1CC(n2nc(-c3ccc(Oc4ccc(F)cc4F)cc3)c(C(N)=O)c2N)CCC12CC2` (stereo not drawn) [WS-408, 5-amino-1-(4-cyano-4-azaspiro[2.5]oct-6-yl)-3-(4-(2,4-difluorophenoxy)phenyl)-1H-pyrazole-4-carboxamide], the IC50 was less than 100 nM.
Work on `NC(=O)c1c(-c2ccc(Oc3ccc(F)cc3F)cc2)nn(C2CCC3(CC3)N(C(=O)/C=C/CO)C2)c1N` (stereo not drawn) [WS-409, (E)-5-amino-3-(4-(2,4-difluorophenoxy)phenyl)-1-(4-(4-hydroxybut-2-enoyl)-4-azaspiro[2.5]oct-6-yl)-1H-pyrazole-4-carboxamide] yielded an IC50 of less than 100 nM.
Work on `C=CC(=O)N1CC(n2nc(-c3ccc(Oc4ccc(F)cc4F)cc3)c(C(N)=O)c2N)CCC12CC2` (stereo not drawn) [WS-410, 1-(4-acryloyl-4-azaspiro[2.5]oct-6-yl)-5-amino-3-(4-(2,4-difluorophenoxy)phenyl)-1H-pyrazole-4-carboxamide] yielded an IC50 of less than 100 nM.
`N#CN1C[C@@H](n2nc(-c3ccc(Oc4ccc(F)cc4F)cc3)c(C(N)=O)c2N)CCC12CC2` [WS-412, (S)-5-amino-1-(4-cyano-4-azaspiro[2.5]oct-6-yl)-3-(4-(2,4-difluorophenoxy)phenyl)-1H-pyrazole-4-carboxamide] gave an IC50 greater than 1000 nM.
For `N#CN1C[C@@H](n2nc(-c3ccc(Oc4ccc(Cl)cn4)cc3)c(C(N)=O)c2N)CCC12CC2` [WS-414, (S)-5-amino-3-(4-((5-chloropyridin-2-yl)oxy)phenyl)-1-(4-cyano-4-azaspiro[2.5]oct-6-yl)-1H-pyrazole-4-carboxamide], the IC50 was 100 to 1000 nM.
With `CC#CC(=O)N1C[C@@H](n2nc(-c3ccc(Oc4ccc(Cl)cn4)cc3)c(C(N)=O)c2N)CCC12CC2` [WS-417] the IC50 was 100 to 1000 nM.
`CC#CC(=O)N1C[C@H](n2nc(-c3ccc(Oc4ccc(F)cc4F)cc3)c(C(N)=O)c2N)CCC12CC2` [WS-421, (R)-5-amino-1-(4-(2-butynoyl)-4-azaspiro[2.5]oct-6-yl)-3-(4-(2,4-difluorophenoxy)phenyl)-1H-pyrazole-4-carboxamide] showed an IC50 of less than 100 nM.
